Data on two compounds can be found in US8299055B2, “8-substituted isoquinoline derivative and the use thereof” (Asahi Kasei Pharma Corporation, priority 2008, dated 2012).

Each structure is given as a SMILES string.

The subject of this data set is mouse collagen-induced arthritis model. Put plainly: Mouse collagen-induced arthritis model. In kind it is in vivo. The procedure: On Days 0 and 21, […] of chicken cartilage-derived collagen (Nippon Meat Packers, Inc., Japan) in 0.1 mL of complete Freund's adjuvant (Difco Laboratories, Inc., U.S.) was subcutaneously injected to female DBA/1J Jms Slc mice (6- to 8-week-old) (Japan SLC, Japan) to immunize the mice.
Among the compounds of the present invention, a representative test compound (Example compound 1-N-6 or 2-N-100) was orally administered twice daily every day from Day 21 to Day 34 at a dose of 25 or 50 mg/kg (method A) or from Day 21 to Day 29 at a dose of 1, 3, 10, or 30 mg/kg (method B). The solution for administration was prepared by using 0.5% w/v Methylcellulose 400 Solution (Wako Pure Chemical Industries, Ltd.) as a solvent.
After administration of collagen on Day 21, the extent of development of arthritis in the mouse limbs were scored by visually observing each limb periodically according to the clinical scores outlined in Table X-1.
The clinical scores for all four limbs were summed up for each mouse and the mean±standard error (SE) of each treatment group was calculated. Evaluation was performed until the following day of the final administration.

`N#Cc1cccc(-c2cc(N3CCNCC3)c3cnccc3c2)c1` [Example 1-N-6]: the toxicity entry (method A: oral twice daily Day 21 to Day 34, 25 or 50 mg/kg) was “did not exhibit toxicity”. Under “method A: oral twice daily Day 21 to Day 34, 25 or 50 mg/kg, FIG. 1”, the “onset of arthritis (clinical scores)” value is on record as “suppressed the onset of arthritis”.
Take `Cc1ccc(C(=O)N2CCC(Nc3cc(-c4cccc(C#N)c4)cc4ccncc34)CC2)cn1` [Example 2-N-100]: where the note is “method B: oral twice daily Day 21 to Day 29, 1, 3, 10 or 30 mg/kg”, the toxicity entry is recorded as “did not exhibit toxicity”. For the setting “method B: oral twice daily Day 21 to Day 29, 1, 3, 10 or 30 mg/kg, FIG. 2”, the “onset of arthritis (clinical scores)” value is “suppressed the onset of arthritis”.
